The values that follow come from US10251937B2, “Retro-inverso analogs of spadin display increased antidepressant effects” (MEDINCELL, priority 2014, dated 2019).

Square brackets hold non-standard residues; d marks the D form. Ends that are not written are not given here. Peptide text beside a SMILES is read from it.

In assay [1] the target is T1, human two-pore domain potassium channel TREK-1 (Homo sapiens, UniProt O95069).
T1 sequence (O95069 1-426): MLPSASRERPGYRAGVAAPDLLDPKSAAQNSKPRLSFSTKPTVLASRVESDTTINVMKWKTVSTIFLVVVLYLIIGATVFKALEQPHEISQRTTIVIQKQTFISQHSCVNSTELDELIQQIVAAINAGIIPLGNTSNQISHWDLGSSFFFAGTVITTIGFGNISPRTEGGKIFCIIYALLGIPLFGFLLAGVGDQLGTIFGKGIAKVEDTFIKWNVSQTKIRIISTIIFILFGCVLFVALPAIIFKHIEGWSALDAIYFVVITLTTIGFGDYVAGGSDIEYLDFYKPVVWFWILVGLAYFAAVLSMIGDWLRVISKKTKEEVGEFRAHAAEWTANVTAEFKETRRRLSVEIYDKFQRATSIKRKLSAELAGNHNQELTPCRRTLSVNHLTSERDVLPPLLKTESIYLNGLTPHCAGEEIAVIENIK
The note with it: Kennard et al; cited from earlier work.

Another assay has as its system dogs. The conditions noted are these: dogs with separation anxiety; cited from earlier work.
For assay [2], the system named is C57Bl/6J mice. Briefly: Novelty Suppressed Feeding (NSF) test. In kind it is in vivo. The conditions noted are these: 10 μg/kg i.v. daily for 4 days, test on day 5. The method, then:
(§1) Stock solutions were prepared of 2 mg/mL (10^-3M) in distilled water, and before injection spadin solution was diluted in NaCl 0.9% to obtain the different concentrations used for treatments. Corticosterone (Sigma-Aldrich, France) was dissolved in drinking water at the concentration of 3.5 mg/L in the presence of 4.5 g/L of beta-cyclodextrin. […] Fluoxetine (Sigma-Aldrich, France) was dissolved in drinking water at the dose of 80 mg/L and administered during 21 days. For i.p. administration, fluoxetine (TEVA Santé, France) was dissolved in NaCl 0.9% at a concentration of 0.75 mg/mL. The amount injected was 3 mg/kg. Spadin and analogues were administered by i.v. injection. For acute treatment, drugs were administered in a single 100 μL bolus 30 min prior to the beginning of the behavioral tests. For subchronic treatment drugs were injected during 4 consecutive days and behavioral tests were performed on day 5, without additional injection.
The NSF paradigm is a two day test protocol. Day one, mice were deprived from food. Day two mice were placed in a highly brightly lit area, in a plastic box (45×45×20 cm), with a floor covered with wooden bedding. The test was carried out during a 10 min period; during this time the latency to eat was measured. During the test a single pellet of food was placed in the center of the box, on a white platform.

Assay [3] deals with C57Bl/6J mice. Nature of the assay: Forced Swimming Test (FST) in naive mice. In kind it is in vivo. On the procedure:
Naïve male C57Bl/6J mice from 7 to 9 weeks old were used in all experiments (Janvier laboratory). Mice were housed 10 animals per cage under a 12-h light/12-h dark cycle (light on at 8:00 am), in a ventilated room at a temperature of 22±1° C. Animals had free access to water and food (A03; SAFE, Augy, France). All experiments were conducted according to policies on the care and use of laboratory animals of the Society for Neuroscience, and also with respect to national laws on animal use. The local Ethics Committee (CIEPAL) approved the experiments.
as §1
The animals were individually placed in a non-escapable cylinder (height 30 cm, diameter 15 cm) filled with 15 cm-water at 22±1° C. The trial was conducted for 6 min. The total period of immobility was manually measured during the last 4 min of the test. A mouse was considered immobile when it remained floating with only slight movements to keep its head above water.

Assay [4] concerns dentate gyrus of the mouse hippocampus. Nature of the assay: Hippocampal neurogenesis, BrdU-positive cell count. In kind it is in vivo. The note with it: 4 day treatment, 10 μg/kg i.v. The method, then: One day after the injections of 5-bromo-2-deoxyuridine (BrdU), 12 mg per animal divided in four bolus of 100 μl injected every two hours with spadin or Analog 3 (SEQ ID NO:4) and Analog 8 (SEQ ID NO:9), mice were anesthetized with isoflurane and transcardially perfused with 20 mL of 0.9% NaCl followed by 20 mL paraformaldehyde in 4%/NaCl at a concentration of 0.9%. By using a vibratome (Leica) brains were cut in 40 μm sections, throughout the entire hippocampus. Eight slices, from bregma 3.3 to bregma 5.3, were retained to process the BrdU immunohistochemistry as previously described (Heurteaux, C. et al. Deletion of the background potassium channel TREK-1 results in a depression-resistant phenotype. Nat Neurosci 9, 1134, (2006)). For each BrdU labeling, slices were first incubated with a mouse monoclonal anti-BrdU antibody (1/8000, Becton Dinckinson). […]
It was previously shown that a 4-days subchronic treatment with spadin increased the hippocampal neurogenesis (Mazella, J. et al. Spadin, a sortilin-derived peptide, targeting rodent TREK-1 channels: a new concept in the antidepressant drug design. PLoS Biol 8, e1000355, (2010)). […] The neurogenesis in the dentate gyrus of the mouse hippocampus was analyzed by counting the number of progenitor cells that incorporated the DNA synthesis marker 5-bromo-2′deoxyuridine (BrdU).

The next assay addresses T2, TREK-1 channels (Homo sapiens, UniProt O95069).
T2 construct: expressed in transfected cells
T2 sequence (O95069 1-426): T1 sequence (O95069 1-426)
Nature of the assay: TREK-1 current inhibition, whole cell patch clamp on h-TREK-1/HEK cell line. The assay is classed as cell-based. The method, then: The human-TREK-1/HEK293 cell line (h-TREK-1/HEK) (Moha ou Maati, H. et al. (2011). PloS one, 6 (10), e25602) and HEK-IKS cell line (Ducroq, J. et al, (2010) Br J Pharmacol, 159(1):93-101) were grown in the presence of 0.5 mg/mL G418 in Dulbecco's modified Eagle's medium supplemented with 10% (v/v) heat inactivated fetal bovine serum containing 1% (v/v) penicillin/streptomycin in an atmosphere of 95% air/5% CO2.
All electrophysiological experiments were performed on h-TREK-1/HEK cells seeded at a density of 20 000 cells/35-mm dish after 2-6 days of culture. All electrophysiological recordings were performed in whole cell configuration of the patch clamp technique. Each current was evaluated by using a RK 400 patch clamp amplifier (Axon Instrument, USA), low-pass filtered at 3 kHz and digitized at 10 kHz using a 12-bit analog-to-digital converter digidata (1322 series, Axon Instrument, USA). All current amplitudes are expressed in current densities. Results were expressed as mean±standard error of the mean (SEM). […] The bath solution contained 150 mM NaCl, 5 mM KCl, 3 mM MgCl2, 1 mM CaCl2 and 10 mM HEPES adjusted to pH 7.4 with NaOH. The pipette solution contained 155 mM KCl, 3 mM MgCl2, 5 mM EGTA and 10 mM HEPES adjusted to pH 7.2 with KOH. TREK-1 currents were evaluated in the presence of a cocktail of potassium channel inhibitors (K+ blockers: 3 mM 4-aminopyridine (4-AP), 10 mM tetraethylammonium (TEA), 10 μM glibenclamide, 100 nM apamin and 50 nM charybdotoxin). All experiments were performed at room temperature (21-22° c.). Stimulation protocols and data acquisition were carried out using a microcomputer (Dell Pentium) with a commercial software and hardware (pClamp 8.2). Currents were recorded by voltage clamp steps to membrane potentials of −100 to +60 mV in 20 mV steps applied from a holding potential of −80 mV. Duration of depolarization pulses were […], and the pulse cycling rate was 5 sec. TREK-1 current amplitudes were evaluated at the end of the stimulation pulses. Cells were continuously superfused with a microperfusion system. Inhibitory effects of spadin and analogs were performed on arachidonic acid pre-activated TREK-1 currents. Spadin and analogs were tested at the unique dose of 100 nM. For both Analog 3 (SEQ ID:4) and Analog 8 (SEQ ID:9) concentration-dependant inhibitions were performed by applying concentrations ranging between 1 nM to 1 μM. IKS currents were activated by voltage clamp steps of membrane potentials from −100 to +100 mV in 20 mV steps applied from a holding potential of −80 mV. Tail currents were generated by repolarization to −40 mV. Duration of both depolarization and repolarization pulses were 2.4 s, and the pulse cycling rate was 10 s. IKR currents were activated by voltage clamp steps of membrane potentials from −100 to +100 mV in 10 mV steps applied from a holding potential of […] and tail currents were generated by a repolarization to […]. Duration of both depolarization and repolarization pulses were 1 s, and the pulse cycling rate was 5 s. The amplitudes of IKS and IKR currents were calculated at both the end of the first pulse and the peak of the tail pulse.
Neuropharmacology 62, 278, (2012)) was used as reference.
Background: Patch clamp records ionic current or voltage across a cell membrane.

For assay [5], the system named is C57Bl/6J mice. Nature of the assay: Forced Swimming Test (FST) in naive mice. In kind it is in vivo. The note with it: acute i.c.v., 50 ng/kg (FIG. 9B), 30 minutes.

Broadly, the IC50 is the concentration that gives 50% inhibition. Low values mean inhibition by little substance, high ones a need for much substance.

`CNCCC(Oc1ccc(C(F)(F)F)cc1)c1ccccc1` (stereo not shown) [fluoxetine]: in assay [1], the “effect on human TREK-1 channel” value is listed as “inhibit”. Also, the “dogs less depressive as indicated by better behavior” value with dogs is 73%.

On to “APLPRWSGPIGVSWGLR [spadin, APLPRWSGPIGVSWGLR]”, for which the “latency to feed, NSF” value in the assay on C57Bl/6J mice [2] is 151.11 ± 17.70 s. For the same molecule, in the assay on C57Bl/6J mice [3] (10 μg/kg acute i.v., measured 30 minutes after injection, n=10), the “immobility time, FST, acute treatment” value stood at 107.40 ± 5.05 s. Besides, in the assay with C57Bl/6J mice [3] (10 μg/kg i.v. once a day for 4 days, test on day 5), the “immobility time, FST, subchronic treatment” value was 123.70 ± 7.16 s. The “time of immobility, FST time course” value in the assay on C57Bl/6J mice [3] (3 h after injection (order of listing)) stood at 113.2 ± 5.0 s; with C57Bl/6J mice [3] (7 h after injection (order of listing)), 150.8 ± 6.5 s; with C57Bl/6J mice [3] (17 h after injection (order of listing)), 175.3 ± 7.5 s; in the assay on C57Bl/6J mice [3] (first (initial) time point after injection, time not given), 102.4 ± 6.2 s. For the same molecule, the “remaining efficiency, % of the initial efficacy, FST” value is 84% in the assay on C57Bl/6J mice [3] (3 h after the injection) and 30% with C57Bl/6J mice [3] (seven hours after the injection). The “reduction of immobility times, FST” value with C57Bl/6J mice [3] (after 17 h) was “no reduction in the immobility times”. In assay [4], the “number of BrdU-positive cells in the subgranular zone compared to saline” value is “significantly increased”.

For `CC[C@@H](C)[C@H]1NC(=O)CNC(=O)[C@@H](C(C)C)NC(=O)[C@@H](CO)NC(=O)[C@@H](Cc2c[nH]c3ccccc23)NC(=O)CNC(=O)[C@@H](CC(C)C)NC(=O)[C@@H](CCCNC(=N)N)NC(=O)[C@@H](C)NC(=O)[C@H]2CCCN2C(=O)[C@@H](CC(C)C)NC(=O)[C@H]2CCCN2C(=O)[C@@H](CCCNC(=N)N)NC(=O)[C@@H](Cc2c[nH]c3ccccc23)NC(=O)[C@@H](CO)NC(=O)CNC(=O)[C@H]2CCCN2C1=O` [Analog 15, c(rlGwsvGipGswrplpa)] (cyclo([dR][dL]G[dW][dS][dV]G[dI][dP]G[dS][dW][dR][dP][dL][dP][dA])), the “blockade effect on TREK-1 channel activity compared to spadin” value on TREK-1 channels (100 nM, n=10 to 12) was “increased blockade effect”. At TREK-1 channels (h-TREK-1/HEK cells, measured at 0 mV (FIG. 8F)), this molecule registered an IC50 of 0.04 nM. In addition, the “activity in FST after i.c.v. injection” value in the assay with C57Bl/6J mice [5] was “active”.
